# Test results taken from PubChem BioAssay AID504641 (Sanford-Burnham Center for Chemical Genomics, 2011).
# Active and inactive are the calls of the source.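 The calls were made as follows: active = mean IC50 at or below a set limit; inactive = the rest.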
# Test system: 697 B-cell NF-kB luciferase reporter, PMA/ionomycin, 16 h
# Experiment: B-cell antigen receptor NF-kB activation inhibitors, SAR follow-up, 697 B cells, luminescence, set 3 (AID 504641)
row,SMILES,IC50
1,CCOc1ccc(-c2nc(CSCC(=O)N3CCC(C)CC3)c(C)o2)cc1,70400 nM (inactive)
2,CCOc1ccc(-c2nc(CSCC(=O)N3CCCC3)c(C)o2)cc1,> 80000 nM (inactive)
3,CCOc1ccc(-c2nc(CSCC(=O)NCC3CCCO3)c(C)o2)cc1 (stereo not drawn),7840 nM
4,CCOc1ccc(-c2nc(CSCC(=O)NC(C)C)c(C)o2)cc1,1240 nM
5,CCCNC(=O)CSCc1nc(-c2ccc(OCC)cc2)oc1C,1510 nM
6,CCOc1ccc(-c2nc(CSCC(=O)NCc3cccs3)c(C)o2)cc1,650 nM
7,CCOCCCNC(=O)CSCc1nc(-c2ccc(OCC)cc2)oc1C,10300 nM
8,CCOc1ccc(-c2nc(CSCC(=O)NCc3ccc(C)cc3)c(C)o2)cc1,2770 nM
9,CCOc1ccc(-c2nc(CSCC(=O)NCCOC)c(C)o2)cc1,310 nM
10,CCOc1ccc(-c2nc(CSCC(=O)NCCN3CCCC3)c(C)o2)cc1,12100 nM
11,CCOc1ccc(-c2nc(CSCC(=O)NCc3ccccc3)c(C)o2)cc1,6750 nM
12,CCOc1ccc(-c2nc(CSCC(=O)NCCc3ccccc3)c(C)o2)cc1,3560 nM
13,CCOc1ccc(-c2nc(CSCC(=O)NCCc3ccc(Cl)cc3)c(C)o2)cc1,> 80000 nM (inactive)
14,CCCCNC(=O)CSCc1nc(-c2ccc(OCC)cc2)oc1C,8640 nM
15,CCCNC(=O)CSCc1nc(-c2ccc(SC)cc2)oc1C,> 80000 nM (inactive)
16,CCOc1ccc(-c2nc(CSCC(=O)NCCc3ccc(C)cc3)c(C)o2)cc1,18100 nM
17,CSc1ccc(-c2nc(CSCC(=O)NC3CC3)c(C)o2)cc1,1360 nM
18,CCOc1ccc(-c2nc(CSCC(=O)NCCC3=CCCCC3)c(C)o2)cc1,36500 nM (inactive)
19,CCOc1ccc(-c2nc(CSCC(=O)NCc3cccnc3)c(C)o2)cc1,2380 nM
20,CCOc1ccc(-c2nc(CSCC(=O)NC3CCCC(C)C3C)c(C)o2)cc1 (stereo not drawn),> 80000 nM (inactive)
21,CCOc1ccc(-c2nc(CSCC(=O)NC(C)CC)c(C)o2)cc1 (stereo not drawn),46900 nM (inactive)
22,CCOc1ccc(-c2nc(CSCC(=O)NC3CCCC3)c(C)o2)cc1,25700 nM (inactive)

# Further lines, results first:
row,IC50,SMILES
1,> 80000 nM (inactive),CCOc1ccc(-c2noc(CCC(=O)NC)n2)cc1
2,> 80000 nM (inactive),CNC(=O)CCc1nc(-c2ccc(OC)cc2)no1
3,< 160 nM,CC(C)(C)c1ccc(-c2noc(CCC(=O)Nc3ccccc3)n2)cc1
4,190 nM,CCCNC(=O)CCc1nc(-c2ccc(C(C)(C)C)cc2)no1
5,< 160 nM,CCOc1ccccc1NC(=O)CCc1nc(-c2ccc(C(C)(C)C)cc2)no1
6,590 nM,CC(C)(C)c1ccc(-c2noc(CCC(=O)NCC3CCCO3)n2)cc1 (stereo not drawn)
7,400 nM,CC(C)(C)c1ccc(-c2noc(CCC(=O)NC3CCCCC3)n2)cc1
8,240 nM,CC(C)CNC(=O)CCc1nc(-c2ccc(C(C)(C)C)cc2)no1
9,24300 nM (inactive),CC(C)(C)c1ccc(-c2noc(CCC(=O)N3CCOCC3)n2)cc1
10,> 80000 nM (inactive),CNC(=O)CCc1nc(-c2ccc(Cl)cc2)no1
11,< 160 nM,COc1cccc(NC(=O)CCc2nc(-c3ccc(C(C)(C)C)cc3)no2)c1
12,< 160 nM,COc1ccccc1NC(=O)CCc1nc(-c2ccc(C(C)(C)C)cc2)no1
13,160 nM,CC(C)(C)c1ccc(-c2noc(CCC(=O)Nc3cccnc3)n2)cc1
14,360 nM,CC(C)(C)c1ccc(-c2noc(CCC(=O)NC3CCCC3)n2)cc1
15,30300 nM (inactive),CC(C)(C)c1ccc(-c2noc(CCC(=O)N3CCCCC3)n2)cc1
16,280 nM,CC(C)NC(=O)CCc1nc(-c2ccc(C(C)(C)C)cc2)no1
17,200 nM,CC(C)(C)c1ccc(-c2noc(CCC(=O)NCc3ccco3)n2)cc1
18,190 nM,C=CCNC(=O)CCc1nc(-c2ccc(C(C)(C)C)cc2)no1
19,< 160 nM,CC(C)(C)c1ccc(-c2noc(CCC(=O)Nc3cccc([N+](=O)[O-])c3)n2)cc1
20,> 80000 nM (inactive),CNC(=O)CCc1nc(-c2ccc(C)cc2)no1
21,> 80000 nM (inactive),CNC(=O)CCc1nc(-c2ccc(F)cc2)no1
